Data taken from patent publication US20260166128A1, “HUMAN AMYLIN ANALOG, AND DERIVATIVE THEREOF AND USE THEREOF” (priority 2022, published 2026).
Numbered stars: 1 amine (or outer) side, 2 acyl side, 3 side chain; on linkers, the order of the positions; unused ones are H or OH. Bridge positions count the residues as written; N and C are the ends. Square brackets hold non-standard residues; d marks the D form. Side chains are listed from the residue outwards. Peptide text beside a SMILES is read from it. * marks the point of attachment. C20 diacid = O=C(O)CCCCCCCCCCCCCCCCCCC(=O)*; C18 diacid = O=C(O)CCCCCCCCCCCCCCCCC(=O)*; γGlu = O=C(O)[C@H](CCC(=O)[*:2])N[*:1]; Hyp = O=C(O)[C@@H]1C[C@@H](O)CN1; Dap = NC[C@H](N)C(=O)O; AEEA = NCCOCCOCC(=O)O

Molecular target: T1, human amylin receptor (Homo sapiens, UniProt O60896+P30988)
T1 construct: host or cells: CHO-K1/Ga15/AMY3 cells, further stably transfected with a CRE-luciferase plasmid
T1 sequence (P30988 25-474): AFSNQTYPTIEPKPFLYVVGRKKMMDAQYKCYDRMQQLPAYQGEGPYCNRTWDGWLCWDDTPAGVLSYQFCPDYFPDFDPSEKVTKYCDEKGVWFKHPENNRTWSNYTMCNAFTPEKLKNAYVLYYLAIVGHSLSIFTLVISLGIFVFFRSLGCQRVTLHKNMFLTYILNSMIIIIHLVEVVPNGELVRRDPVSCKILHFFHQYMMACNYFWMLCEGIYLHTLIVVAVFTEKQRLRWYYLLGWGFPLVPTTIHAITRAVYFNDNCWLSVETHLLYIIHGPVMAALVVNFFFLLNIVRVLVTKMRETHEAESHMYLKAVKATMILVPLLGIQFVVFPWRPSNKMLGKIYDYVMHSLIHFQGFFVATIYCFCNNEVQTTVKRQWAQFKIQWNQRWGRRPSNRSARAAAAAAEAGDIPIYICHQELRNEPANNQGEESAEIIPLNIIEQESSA
T1 sequence (O60896 24-148 partner): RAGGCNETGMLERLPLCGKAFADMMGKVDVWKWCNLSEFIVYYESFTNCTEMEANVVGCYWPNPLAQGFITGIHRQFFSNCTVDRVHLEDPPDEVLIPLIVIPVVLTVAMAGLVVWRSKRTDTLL
Test: Luciferase assay of amylin derivatives in amylin receptor/CRE-luc CHO cell line
Format: cell-based
Conditions: CHO-K1/Ga15/AMY3 CRE-luc cells, 24 hours incubation, F12 medium containing 10% FBS; read-out: EC50
Procedure: The experiment was intended to detect the activity or efficacy of the amylin derivatives on a human amylin receptor in vitro by luciferase assay.
50 μL of growth medium (F12 medium containing 10% FBS) was added into each well of a white 96-well plate, and the stably transfected amylin/CRE-lue CHO cells were inoculated into the white 96-well plate at a density of about 20,000 cells/well for activity determination.

Compound | EC50 [nM]
CC[C@H](C)[C@H](NC(=O)[C@@H]1CCCN1C(=O)[C@H](CCCCN)NC(=O)[C@H](CC(C)C)NC(=O)[C@H](CC(N)=O)NC(=O)[C@H](CC(N)=O)NC(=O)[C@H](CO)NC(=O)[C@H](CO)NC(=O)[C@H](Cc1c[nH]cn1)NC(=O)[C@H](CCCNC(=N)N)NC(=O)[C@H](CC(C)C)NC(=O)[C@H](Cc1ccccc1)NC(=O)[C@H](CC(=O)O)NC(=O)[C@H](C)NC(=O)[C@H](CC(C)C)NC(=O)[C@H](CCCNC(=N)N)NC(=O)[C@H](CCC(N)=O)NC(=O)[C@@H](NC(=O)[C@H](C)NC(=O)[C@@H]1CSSC[C@H](NC(=O)[C@H](CCCCN)NC(=O)CC[C@H](NC(=O)CCCCCCCCCCCCCCCCCCC(=O)O)C(=O)O)C(=O)N[C@@H](CC(N)=O)C(=O)N[C@@H]([C@@H](C)O)C(=O)N[C@@H](C)C(=O)N[C@@H]([C@@H](C)O)C(=O)N1)[C@@H](C)O)C(=O)N[C@@H](CC(C)C)C(=O)N1CCC[C@H]1C(=O)N1CCC[C@H]1C(=O)N[C@H](C(=O)N[C@@H](CC(N)=O)C(=O)N[C@H](C(=O)NCC(=O)N[C@@H](CO)C(=O)N[C@@H](CC(N)=O)C(=O)N[C@H](C(=O)N1C[C@H](O)C[C@H]1C(N)=O)[C@@H](C)O)C(C)C)[C@@H](C)O [PD071] ({C20 diacid-γGlu}-KCNTATCATQRLADFLRHSSNNLKPILPPTNVGSNT[Hyp]-NH2; disulfide 2-7 (inferred)) | 0.028
CC[C@H](C)[C@H](NC(=O)[C@@H]1CCCN1C(=O)CNC(=O)[C@H](CC(C)C)NC(=O)[C@H](CC(N)=O)NC(=O)[C@H](CC(N)=O)NC(=O)[C@H](CO)NC(=O)[C@H](CO)NC(=O)[C@H](Cc1c[nH]cn1)NC(=O)[C@H](CCCNC(=N)N)NC(=O)[C@H](CC(C)C)NC(=O)[C@H](Cc1ccccc1)NC(=O)[C@H](CC(=O)O)NC(=O)[C@H](C)NC(=O)[C@H](CC(C)C)NC(=O)[C@H](CCCNC(=N)N)NC(=O)[C@H](CCC(N)=O)NC(=O)[C@@H](NC(=O)[C@H](C)NC(=O)[C@@H]1CSSC[C@H](NC(=O)[C@H](CCCCN)NC(=O)CC[C@H](NC(=O)CCCCCCCCCCCCCCCCC(=O)O)C(=O)O)C(=O)N[C@@H](CC(N)=O)C(=O)N[C@@H]([C@@H](C)O)C(=O)N[C@@H](C)C(=O)N[C@@H]([C@@H](C)O)C(=O)N1)[C@@H](C)O)C(=O)N[C@@H](CC(C)C)C(=O)N1CCC[C@H]1C(=O)N1CCC[C@H]1C(=O)N[C@H](C(=O)N[C@@H](CC(N)=O)C(=O)N[C@H](C(=O)NCC(=O)N[C@@H](CO)C(=O)N[C@@H](CC(N)=O)C(=O)N[C@H](C(=O)N1C[C@H](O)C[C@H]1C(N)=O)[C@@H](C)O)C(C)C)[C@@H](C)O [PD124] ({C18 diacid-γGlu}-KCNTATCATQRLADFLRHSSNNLGPILPPTNVGSNT[Hyp]-NH2; disulfide 2-7) | 0.008
CC[C@H](C)[C@H](NC(=O)[C@@H]1CCCN1C(=O)[C@H](CCCCNC(=O)CC[C@H](NC(=O)CCCCCCCCCCCCCCCCCCC(=O)O)C(=O)O)NC(=O)[C@H](CC(C)C)NC(=O)[C@H](CC(N)=O)NC(=O)[C@H](CC(N)=O)NC(=O)[C@H](CO)NC(=O)[C@H](CO)NC(=O)[C@H](Cc1c[nH]cn1)NC(=O)[C@H](CCCNC(=N)N)NC(=O)[C@H](CC(C)C)NC(=O)[C@H](Cc1ccccc1)NC(=O)[C@H](CCC(=O)O)NC(=O)[C@H](C)NC(=O)[C@H](CC(C)C)NC(=O)[C@H](CCCNC(=N)N)NC(=O)[C@H](CCC(N)=O)NC(=O)[C@@H](NC(=O)[C@H](C)NC(=O)[C@@H]1CSSC[C@H](NC(=O)[C@@H](N)CCCNC(=N)N)C(=O)N[C@@H](CC(N)=O)C(=O)N[C@@H]([C@@H](C)O)C(=O)N[C@@H](C)C(=O)N[C@@H]([C@@H](C)O)C(=O)N1)[C@@H](C)O)C(=O)N[C@@H](CC(C)C)C(=O)N1CCC[C@H]1C(=O)N1CCC[C@H]1C(=O)N[C@H](C(=O)N[C@@H](CC(N)=O)C(=O)N[C@H](C(=O)NCC(=O)N[C@@H](CO)C(=O)NCC(=O)N[C@H](C(=O)N1C[C@H](O)C[C@H]1C(N)=O)[C@@H](C)O)C(C)C)[C@@H](C)O [PD041] (H-RCNTATCATQRLAEFLRHSSNNLK([γGlu-C20 diacid])PILPPTNVGSGT[Hyp]-NH2; disulfide 2-7) | 0.259
CC[C@H](C)[C@H](NC(=O)[C@@H]1CCCN1C(=O)[C@H](CCCCNC(=O)COCCOCCNC(=O)COCCOCCNC(=O)CC[C@H](NC(=O)CCCCCCCCCCCCCCCCC(=O)O)C(=O)O)NC(=O)[C@H](CC(C)C)NC(=O)[C@H](CC(N)=O)NC(=O)[C@H](CC(N)=O)NC(=O)[C@H](CO)NC(=O)[C@H](CO)NC(=O)[C@H](Cc1c[nH]cn1)NC(=O)[C@H](CCCNC(=N)N)NC(=O)[C@H](CC(C)C)NC(=O)[C@H](Cc1ccccc1)NC(=O)[C@H](CC(=O)O)NC(=O)[C@H](C)NC(=O)[C@H](CC(C)C)NC(=O)[C@H](CCCNC(=N)N)NC(=O)[C@H](CCC(N)=O)NC(=O)[C@@H](NC(=O)[C@H](C)NC(=O)[C@@H]1CSSC[C@H](NC(=O)[C@@H](N)CCCNC(=N)N)C(=O)N[C@@H](CC(N)=O)C(=O)N[C@@H]([C@@H](C)O)C(=O)N[C@@H](C)C(=O)N[C@@H]([C@@H](C)O)C(=O)N1)[C@@H](C)O)C(=O)N[C@@H](CC(C)C)C(=O)N1CCC[C@H]1C(=O)N1CCC[C@H]1C(=O)N[C@H](C(=O)N[C@@H](CC(N)=O)C(=O)N[C@H](C(=O)NCC(=O)N[C@@H](CO)C(=O)N[C@@H](CC(N)=O)C(=O)N[C@H](C(=O)N1C[C@H](O)C[C@H]1C(N)=O)[C@@H](C)O)C(C)C)[C@@H](C)O [PD109] (H-RCNTATCATQRLADFLRHSSNNLK([AEEA-AEEA-γGlu-C18 diacid])PILPPTNVGSNT[Hyp]-NH2; disulfide 2-7) | 0.01
CC[C@H](C)[C@H](NC(=O)[C@@H]1CCCN1C(=O)CNC(=O)[C@H](CC(C)C)NC(=O)[C@H](CC(N)=O)NC(=O)[C@H](CC(N)=O)NC(=O)[C@H](CO)NC(=O)[C@H](CCCCNC(=O)CC[C@H](NC(=O)CCCCCCCCCCCCCCCCC(=O)O)C(=O)O)NC(=O)[C@H](Cc1c[nH]cn1)NC(=O)[C@H](CCCNC(=N)N)NC(=O)[C@H](CC(C)C)NC(=O)[C@H](Cc1ccccc1)NC(=O)[C@H](CC(=O)O)NC(=O)[C@H](C)NC(=O)[C@H](CC(C)C)NC(=O)[C@H](CCCNC(=N)N)NC(=O)[C@H](CCC(N)=O)NC(=O)[C@@H](NC(=O)[C@H](C)NC(=O)[C@@H]1CSSC[C@H](NC(=O)[C@@H](N)CCCNC(=N)N)C(=O)N[C@@H](CC(N)=O)C(=O)N[C@@H]([C@@H](C)O)C(=O)N[C@@H](C)C(=O)N[C@@H]([C@@H](C)O)C(=O)N1)[C@@H](C)O)C(=O)N[C@@H](CC(C)C)C(=O)N1CCC[C@H]1C(=O)N1CCC[C@H]1C(=O)N[C@H](C(=O)N[C@@H](CC(N)=O)C(=O)N[C@H](C(=O)NCC(=O)N[C@@H](CO)C(=O)N[C@@H](CC(N)=O)C(=O)N[C@H](C(=O)N1C[C@H](O)C[C@H]1C(N)=O)[C@@H](C)O)C(C)C)[C@@H](C)O [PD100] (H-RCNTATCATQRLADFLRHK([γGlu-C18 diacid])SNNLGPILPPTNVGSNT[Hyp]-NH2; disulfide 2-7) | 0.06
CC[C@H](C)[C@H](NC(=O)[C@@H]1CCCN1C(=O)[C@H](CC(N)=O)NC(=O)[C@H](CC(C)C)NC(=O)[C@H](CC(N)=O)NC(=O)[C@H](CC(N)=O)NC(=O)[C@H](CO)NC(=O)[C@H](CO)NC(=O)[C@H](Cc1c[nH]cn1)NC(=O)[C@H](CCCNC(=N)N)NC(=O)[C@H](CC(C)C)NC(=O)[C@H](Cc1ccccc1)NC(=O)[C@H](CC(=O)O)NC(=O)[C@H](C)NC(=O)[C@H](CC(C)C)NC(=O)[C@H](CCCNC(=N)N)NC(=O)[C@H](CCC(N)=O)NC(=O)[C@@H](NC(=O)[C@H](C)NC(=O)[C@@H]1CSSC[C@H](NC(=O)[C@H](CCCCN)NC(=O)CC[C@H](NC(=O)CCCCCCCCCCCCCCCCCCC(=O)O)C(=O)O)C(=O)N[C@@H](CC(N)=O)C(=O)N[C@@H]([C@@H](C)O)C(=O)N[C@@H](C)C(=O)N[C@@H]([C@@H](C)O)C(=O)N1)[C@@H](C)O)C(=O)N[C@@H](CC(C)C)C(=O)N1CCC[C@H]1C(=O)N1CCC[C@H]1C(=O)N[C@H](C(=O)N[C@@H](CC(N)=O)C(=O)N[C@H](C(=O)NCC(=O)N[C@@H](CO)C(=O)N[C@@H](CC(N)=O)C(=O)N[C@H](C(=O)N1CCC[C@H]1C(N)=O)[C@@H](C)O)C(C)C)[C@@H](C)O [PD165] ({C20 diacid-γGlu}-KCNTATCATQRLADFLRHSSNNLNPILPPTNVGSNTP-NH2; disulfide 2-7 (inferred)) | 0.05
CC[C@H](C)[C@H](NC(=O)[C@@H]1CCCN1C(=O)[C@H](CN)NC(=O)[C@H](CC(C)C)NC(=O)[C@H](CC(N)=O)NC(=O)[C@H](CC(N)=O)NC(=O)[C@H](CO)NC(=O)[C@H](CO)NC(=O)[C@H](Cc1c[nH]cn1)NC(=O)[C@H](CCCNC(=N)N)NC(=O)[C@H](CC(C)C)NC(=O)[C@H](Cc1ccccc1)NC(=O)[C@H](CC(=O)O)NC(=O)[C@H](C)NC(=O)[C@H](CC(C)C)NC(=O)[C@H](CCCNC(=N)N)NC(=O)[C@H](CCC(N)=O)NC(=O)[C@@H](NC(=O)[C@H](C)NC(=O)[C@@H]1CSSC[C@H](NC(=O)[C@H](CCCCN)NC(=O)CC[C@H](NC(=O)CCCCCCCCCCCCCCCCCCC(=O)O)C(=O)O)C(=O)N[C@@H](CC(N)=O)C(=O)N[C@@H]([C@@H](C)O)C(=O)N[C@@H](C)C(=O)N[C@@H]([C@@H](C)O)C(=O)N1)[C@@H](C)O)C(=O)N[C@@H](CC(C)C)C(=O)N1CCC[C@H]1C(=O)N1CCC[C@H]1C(=O)N[C@H](C(=O)N[C@@H](CC(N)=O)C(=O)N[C@H](C(=O)NCC(=O)N[C@@H](CO)C(=O)N[C@@H](CC(N)=O)C(=O)N[C@H](C(=O)N1CCC[C@H]1C(N)=O)[C@@H](C)O)C(C)C)[C@@H](C)O [PD168] ({C20 diacid-γGlu}-KCNTATCATQRLADFLRHSSNNL[Dap]PILPPTNVGSNTP-NH2; disulfide 2-7 (inferred)) | 0.041
